Values of other authors in PMC2211560 (PLoS Medicine, 2008).
Where two headings read alike, the source gives them in different places.

What was measured:
[1] = cited from earlier work
[2] = tested on: cytochrome P450 3A (CYP3A); conditions: human liver microsomal fractions; cited from earlier work
[3] = rats, cited from earlier work
[4] = in vitro or in vivo; cited from earlier work
[5] = cited from earlier work; remark: listed apart in the source
[6] = monkeys, cited from earlier work
[7] = tested on: several tumor types; conditions: Phase I trials; renal cell cancer, soft tissue sarcoma, cervical, endometrial, non-small cell cancer, non-Hodgkins lymphoma; cited from earlier work
[8] = rats and monkeys; daily for 14 days or daily for 5 days IV every 2 weeks, 4 courses; cited from earlier work
[9] = doses of 0.1-2.5 mg/kg, printed jointly for monkeys and rats

Question: For `CO[C@H]1C[C@@H]2CC[C@@H](C)[C@@](O)(O2)C(=O)C(=O)N2CCCC[C@H]2C(=O)O[C@H]([C@H](C)C[C@@H]2CC[C@@H](OC(=O)C(C)(CO)CO)[C@H](OC)C2)CC(=O)[C@H](C)/C=C(\C)[C@@H](O)[C@@H](OC)C(=O)[C@H](C)C[C@H](C)/C=C/C=C/C=C/1C` [CCI-779], which “blood/plasma (B/P) ratio, mean (range)” value ([1]; 0.75 to 3.12 mg/m^2 daily x 5 schedule) is on record?
Answer: 9.8 (2.4-20)

Question: What about the “mean exposure ratio (rapamycin to CCI-779)” value ([1]; blood, after CCI-779) of the same compound?
Answer: ~3.2

Question: What about the half-life ([1]; weekly dosing) of the same compound?
Answer: 19.3 h

Question: What about the “half-life, range” value ([1]; weekly dosing) of the same compound?
Answer: 13 to 39 h

Question: And the mean clearance ([1]; weekly dosing)?
Answer: 22 L/h

Question: And the “volume of distribution at steady state” value ([1]; weekly dosing)?
Answer: 306 L

Question: And the metabolising enzyme [2]?
Answer: primarily metabolized by cytochrome P450 3A (CYP3A)

Question: And the elimination half life [3, 9]?
Answer: 8 to 16 h

Question: What about the “volume of distribution (Vdss)” value [3] of the same compound?
Answer: 13 to 19 L/kg

Question: And the mutagenic effects [4]?
Answer: no mutagenic effects

Question: And the MTD ([5]; daily x 5 every 2 weeks, heavily pretreated patients)?
Answer: 15 mg/m^2

Question: What about the MTD ([5]; daily x 5 every 2 weeks, minimally pretreated patients) of the same compound?
Answer: 19.1 mg/m^2

Question: What about the MTD ([5]; weekly schedule, doses 7.5 mg/m^2 to 220 mg/m^2) of the same compound?
Answer: has not yet been reached

Question: And the elimination half life [6, 9]?
Answer: 8 to 16 h

Question: And the “volume of distribution (Vdss)” value [6]?
Answer: 1 to 5 L/kg

Question: And the Tumor regression [7]?
Answer: less than 50%

Question: What about the life-threatening toxicity [8] of the same compound?
Answer: No life-threatening toxicity was observed
